For 22 compounds, IC50 results are on record in patent US11795171B2, “Pyrrolotriazinones and imidazotriazinones as ubiquitin-specific protease 7 inhibitors” (Valo Health, Inc., priority 2014, dated 2023).

USP7, sequence (Q93009 208-1102): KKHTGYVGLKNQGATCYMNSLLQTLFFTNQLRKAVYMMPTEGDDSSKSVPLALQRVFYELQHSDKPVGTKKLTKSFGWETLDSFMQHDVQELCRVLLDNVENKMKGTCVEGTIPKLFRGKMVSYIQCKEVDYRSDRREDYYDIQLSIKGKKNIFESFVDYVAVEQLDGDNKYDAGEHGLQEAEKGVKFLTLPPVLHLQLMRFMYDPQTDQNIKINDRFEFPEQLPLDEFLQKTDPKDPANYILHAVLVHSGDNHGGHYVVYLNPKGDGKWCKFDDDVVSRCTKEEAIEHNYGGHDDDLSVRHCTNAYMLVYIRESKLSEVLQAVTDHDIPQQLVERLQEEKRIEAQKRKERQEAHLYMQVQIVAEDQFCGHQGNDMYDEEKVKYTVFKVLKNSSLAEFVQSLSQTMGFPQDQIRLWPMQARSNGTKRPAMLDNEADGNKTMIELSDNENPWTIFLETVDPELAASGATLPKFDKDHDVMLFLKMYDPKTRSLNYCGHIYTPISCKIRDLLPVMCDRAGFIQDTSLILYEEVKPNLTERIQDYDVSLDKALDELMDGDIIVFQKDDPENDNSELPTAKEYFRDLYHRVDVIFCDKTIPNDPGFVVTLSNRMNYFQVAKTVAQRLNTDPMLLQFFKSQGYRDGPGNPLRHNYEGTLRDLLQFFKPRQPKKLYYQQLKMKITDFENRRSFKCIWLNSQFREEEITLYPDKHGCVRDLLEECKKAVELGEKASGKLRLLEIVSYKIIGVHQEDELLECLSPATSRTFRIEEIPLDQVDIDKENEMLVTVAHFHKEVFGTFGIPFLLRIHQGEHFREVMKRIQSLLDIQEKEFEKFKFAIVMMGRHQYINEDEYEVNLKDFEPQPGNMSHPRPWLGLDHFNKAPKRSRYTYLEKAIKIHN

The test concerns the target USP7 (Homo sapiens (Human), UniProt Q93009). The experiment in a line: USP7 Assay B (Ubitquin-Rhodamine110 Assay). The class given is biochemical. The following applies: Ub-Rh110 substrate 25 nM. The method, then: Stock compound solutions were stored at −20° C. as 10 mM in DMSO. […] Prestamped assay plates were allowed to come to room temperature on the day of the assay. For the screen, 100 nL of 2 mM was pre-dispensed for a final screening concentration of 10 μM (DMSO(fc)=0.5%). […] Unless otherwise indicated, all follow-up assays were run on triplecate plates. […] Pre-stamped with compounds were either not preincubated or preincubated with USP7 between 30 to 120 minutes prior to the addition of 10 μL of 2×Ub-Rh110 to compound plates. Plates were incubated stacked for either 23 or 45 minutes at room temperature before fluorescence was read on the Envision (Excitation at 485 nm and Emission at 535 nm; Perkin Elmer) or on the PheraSTAR (Excitation at 485 nm and Emission at 535 nm; BMG Labtech).
Data from USP7 Assays A and B were reported as percent inhibition (inh) compared with control wells based on the following equation: % inh=1−((FLU−AveLow)/(AveHigh−AveLow)) where FLU=measured Fluorescence (See Tables 2 and 3). AveLow=average Fluorescence of no enzyme control (n=16). AveHigh=average Fluorescence of DMSO control (n=16). IC50 values were determined by curve fitting of the standard 4 parameter logistic fitting algorithm included in the Activity Base software package: IDBS XE Designer Model205. Data is fitted using the Levenburg Marquardt algorithm.
Broadly, the IC50 is the concentration needed to halve the response being measured. A higher IC50 goes with a need for much substance. In turn, `Cc1cc(C)n(Cc2ccc(C(=O)N3CCC(O)(Cn4cnn5cccc5c4=O)CC3)cc2)n1` [Compound I-69, 3-((1-(4-((3,5-dimethyl-1H-pyrazol-1-yl)methyl)benzoyl)-4-hydroxypiperidin-4-yl)methyl)pyrrolo[2,1-f][1,2,4]triazin-4(3H)-one] registered an IC50 of 1 to 10 µM. With `O=C(c1ccc(-c2ccc(C(=O)N3CCC(O)(Cn4cnn5cccc5c4=O)CC3)cc2)cc1)N1CCCCC1` [Compound I-52, 3-((4-hydroxy-1-(4′-(piperidine-1-carbonyl)-[1,1′-biphenyl]-4-carbonyl)piperidin-4-yl)methyl)pyrrolo[2,1-f][1,2,4]triazin-4(3H)-one] the figure was over 10 µM; with `CCOc1cccc(-c2ccc(C(=O)N3CCC(O)(Cn4cnn5cccc5c4=O)CC3)cc2)c1` [Compound I-37, 3-((1-(3′-ethoxy-[1,1′-biphenyl]-4-carbonyl)-4-hydroxypiperidin-4-yl)methyl)pyrrolo[2,1-f][1,2,4]triazin-4(3H)-one], over 10 µM.

On to `O=C(COc1cccc(Cl)c1Cl)Nc1cc2c(=O)n(CC3(O)CCN(C(=O)C4CC4)CC3)cnn2c1` [Compound I-106, N-(3-((1-(cyclopropanecarbonyl)-4-hydroxypiperidin-4-yl)methyl)-4-oxo-3,4-dihydropyrrolo[2,1-f][1,2,4]triazin-6-yl)-2-(2,3-dichlorophenoxy)acetamide], for which the IC50 was in the range of 1 to 10 µM. As for `O=C(Nc1ccc2c(c1)CCC2)Nc1cc2c(=O)n(CC3(O)CCN(C(=O)C4CC4)CC3)cnn2c1` [Compound I-90, 1-(3-((1-(cyclopropanecarbonyl)-4-hydroxypiperidin-4-yl)methyl)-4-oxo-3,4-dihydropyrrolo[2,1-f][1,2,4]triazin-6-yl)-3-(2,3-dihydro-1H-inden-5-yl)urea], the IC50 is over 10 µM. With `O=C(CC1CCc2ccccc2C1)N1CCC(O)(Cn2cnn3cccc3c2=O)CC1` (stereo not shown) [Compound I-58, 3-((4-hydroxy-1-(2-(1,2,3,4-tetrahydronaphthalen-2-yl)acetyl)piperidin-4-yl)methyl)pyrrolo[2,1-f][1,2,4]triazin-4(3H)-one] the figure was over 10 µM; with `CC(=O)Nc1cc2c(=O)n(CC3(O)CCN(C(=O)C[C@@H](C)c4ccccc4)CC3)cnn2c1` [Compound I-81, (R)-N-(3-((4-hydroxy-1-(3-phenylbutanoyl)piperidin-4-yl)methyl)-4-oxo-3,4-dihydropyrrolo[2,1-f][1,2,4]triazin-6-yl)acetamide], 0.2 to 1 µM; with `O=C(c1cnc(-c2ccccc2)o1)N1CCC(O)(Cn2cnn3cccc3c2=O)CC1` [Compound I-32, 3-((4-hydroxy-1-(2-phenyloxazole-5-carbonyl)piperidin-4-yl)methyl)pyrrolo[2,1-f][1,2,4]triazin-4(3H)-one], over 10 µM. With `O=C(c1ccccc1-c1cccc(F)c1)N1CCC(O)(Cn2cnn3cccc3c2=O)CC1` [Compound I-4, 3-((1-(3′-fluoro-[1,1′-biphenyl]-2-carbonyl)-4-hydroxypiperidin-4-yl)methyl)pyrrolo[2,1-f][1,2,4]triazin-4(3H)-one] the figure was over 10 µM; with `O=C(c1ccc(-c2cscn2)cc1)N1CCC(O)(Cn2cnn3cccc3c2=O)CC1` [Compound I-59, 3-((4-hydroxy-1-(4-(thiazol-4-yl)benzoyl)piperidin-4-yl)methyl)pyrrolo[2,1-f][1,2,4]triazin-4(3H)-one], over 10 µM; with `Cc1ccc(C(=O)Nc2cc3c(=O)n(CC4(O)CCN(C(=O)C5CC5)CC4)cnn3c2)cc1C` [Compound I-107, N-(3-((1-(cyclopropanecarbonyl)-4-hydroxypiperidin-4-yl)methyl)-4-oxo-3,4-dihydropyrrolo[2,1-f][1,2,4]triazin-6-yl)-3,4-dimethylbenzamide], 1 to 10 µM.

Compound `Cc1ccc2c(=O)n(CC3(O)CCN(C(=O)CC(C)c4ccccc4)CC3)cnn12` (stereo not shown) [Compound I-76, 3-((4-hydroxy-1-(3-phenylbutanoyl)piperidin-4-yl)methyl)-7-methylpyrrolo[2,1-f][1,2,4]triazin-4(3H)-one] had an IC50 of 0.2 to 1 µM. With `Cc1c(F)cccc1NC(=O)Nc1cc2c(=O)n(CC3(O)CCN(C(=O)C4CC4)CC3)cnn2c1` [Compound I-97, 1-(3-((1-(cyclopropanecarbonyl)-4-hydroxypiperidin-4-yl)methyl)-4-oxo-3,4-dihydropyrrolo[2,1-f][1,2,4]triazin-6-yl)-3-(3-fluoro-2-methylphenyl)urea] the figure was over 10 µM; with `N#Cc1ccc(N2CCN(C(=O)N3CCC(O)(Cn4cnn5cccc5c4=O)CC3)CC2)cc1` [Compound I-73, 4-(4-(4-hydroxy-4-((4-oxopyrrolo[2,1-f][1,2,4]triazin-3(4H)-yl)methyl)piperidine-1-carbonyl)piperazin-1-yl)benzonitrile], over 10 µM; with `O=C(c1ccccc1)c1ccc(C(=O)N2CCC(O)(Cn3cnn4cccc4c3=O)CC2)cc1` [Compound I-71, 3-((1-(4-benzoylbenzoyl)-4-hydroxypiperidin-4-yl)methyl)pyrrolo[2,1-f][1,2,4]triazin-4(3H)-one], 1 to 10 µM. With `C=C(C)C(=O)Nc1ccccc1-c1ccc(C(=O)N2CCC(O)(Cn3cnn4cccc4c3=O)CC2)cc1` [Compound I-114, N-(4′-(4-hydroxy-4-((4-oxopyrrolo[2,1-f][1,2,4]triazin-3(4H)-yl)methyl)piperidine-1-carbonyl)-[1,1′-biphenyl]-2-yl)methacrylamide] the figure was 1 to 10 µM; with `COc1cccc(-c2ccc(C(=O)N3CCC(O)(Cn4cnn5cccc5c4=O)CC3)cc2)c1` [Compound I-35, 3-((4-hydroxy-1-(3′-methoxy-[1,1′-biphenyl]-4-carbonyl)piperidin-4-yl)methyl)pyrrolo[2,1-f][1,2,4]triazin-4(3H)-one], over 10 µM. With “3-((4-hydroxy-1-(3-phenylbutanoyl)piperidin-4-yl)methyl)-6-methylpyrrolo[2,1-f][1,2,4]triazin-4(3H)-one [Compound I-83]” the figure was 1 to 10 µM; with `CC(CC(=O)N1CCC(O)(Cn2cnn3cccc3c2=O)CC1)n1cccc1` (stereo not shown) [Compound I-57, 3-((1-(3-(1H-pyrrol-1-yl)butanoyl)-4-hydroxypiperidin-4-yl)methyl)pyrrolo[2,1-f][1,2,4]triazin-4(3H)-one], under 0.2 µM. As to `Cc1ccc(C(=O)Nc2cc3c(=O)n(CC4(O)CCN(C(=O)C5CC5)CC4)cnn3c2)cc1Cl` [Compound I-108, 3-chloro-N-(3-((1-(cyclopropanecarbonyl)-4-hydroxypiperidin-4-yl)methyl)-4-oxo-3,4-dihydropyrrolo[2,1-f][1,2,4]triazin-6-yl)-4-methylbenzamide], the IC50 is over 10 µM. With `O=C(Nc1cc2c(=O)n(CC3(O)CCN(C(=O)C4CC4)CC3)cnn2c1)c1csc(-c2ccccc2)n1` [Compound I-112, N-(3-((1-(cyclopropanecarbonyl)-4-hydroxypiperidin-4-yl)methyl)-4-oxo-3,4-dihydropyrrolo[2,1-f][1,2,4]triazin-6-yl)-2-phenylthiazole-4-carboxamide] the figure was 1 to 10 µM; with `O=C(Nc1cccc(Cl)c1)Nc1cc2c(=O)n(CC3(O)CCN(C(=O)C4CC4)CC3)cnn2c1` [Compound I-85, 1-(3-chlorophenyl)-3-(3-((1-(cyclopropanecarbonyl)-4-hydroxypiperidin-4-yl)methyl)-4-oxo-3,4-dihydropyrrolo[2,1-f][1,2,4]triazin-6-yl)urea], over 10 µM.
